Results reported in ChEMBL document CHEMBL4619724, “Environment-sensitive fluorescent inhibitors of histone deacetylase” (Bioorg Med Chem Lett, 2020).

Legend:
[1] = tested on: MOLT-4; assay: Induction of apoptosis in human MOLT4 cells assessed as increase in apoptotic cells at 5 uM incubated for 24 hrs by Annexin V and PE staining based flow cytometric analysis relative to control; format: functional
[2] = tested on: PC-3; assay: Antiproliferative activity against human PC3 cells incubated for 24 hrs by CCK8 assay; format: functional, cell-based; settings: PC-3, 24 h
[3] = tested on: MOLT-4; assay: Antiproliferative activity against human MOLT4 cells incubated for 24 hrs by CCK8 assay; format: functional, cell-based; settings: MOLT-4, 24 h
[4] = tested on: A549; assay: Antiproliferative activity against human A549 cells incubated for 24 hrs by CCK8 assay; format: functional, cell-based; settings: A549, 24 h
[5] = tested on: K562; assay: Antiproliferative activity against human K562 cells incubated for 24 hrs by CCK8 assay; format: functional, cell-based; settings: K562, 24 h
[6] = target: Histone deacetylase; assay: Inhibition of HDAC in human HeLa cell extracts assessed as inhibition of substrate deacetylation using Boc-Lys (acetyl)-AMC as substrate by fluorescence based assay
[7] = Drug uptake in cytoplasm in human MOLT4 cells overexpressing HDAC at 5 uM incubated for 30 mins by fluorescence microscopic method; format: ADME, subcellular; settings: molt-4, 0.5 h
[8] = Drug uptake in cytoplasm in HEK293 cells harboring low HDAC expression at 5 uM incubated for 30 mins by fluorescence microscopic method; format: ADME, subcellular; settings: human, hek293, 0.5 h
[9] = Drug uptake in human MOLT4 cell membrane at 5 uM incubated for 30 mins by DID staining based confocal microscopic method; format: ADME; settings: molt-4, 0.5 h
[10] = Drug uptake in tumor tissue of nude mouse xenografted with human PC3 cells assessed as increase in fluorescence intensity at 10 uM by fluorescence upright microscopic method; format: ADME, tissue-based, Neoplasm, PC-3; settings: in vivo
[11] = Drug uptake in nude mouse skin assessed as increase in fluorescence intensity in tissue at 10 uM by fluorescence upright microscopic method; format: ADME, tissue-based, Zone of skin; settings: in vivo
[12] = Drug uptake in tumor tissue of nude mouse xenografted with human PC3 cells assessed as increase in fluorescence intensity in tumor tissue at 10 uM in presence of HDAC inhibitor, SAHA by fluorescence upright microscopic method; format: ADME, tissue-based, Neoplasm, PC-3; settings: in vivo
[13] = Drug uptake in nucleus in human MOLT4 cells at 5 uM incubated for 30 mins by Hoechst 33342 staining based confocal microscopic method; format: ADME, subcellular; settings: molt-4, 0.5 h
[14] = Drug uptake in nude mouse thigh muscles assessed as increase in fluorescence intensity in tissue at 10 uM by fluorescence upright microscopic method; format: ADME, tissue-based, Thigh muscle; settings: in vivo
[15] = Drug uptake in cytoplasm in human PC3 cells overexpressing HDAC at 5 uM incubated for 30 mins by fluorescence microscopic method; format: ADME, subcellular; settings: pc-3, 0.5 h

IC50 [2] [µM]	IC50 [3] [µM]	IC50 [4] [µM]	IC50 [5] [µM]	IC50 [6] [µM]	Structure (SMILES)	Activity [1] [%]	other results
–	–	–	–	7.58	CN(C)S(=O)(=O)c1ccc(NCCCCCNC(=O)NCC(=O)NO)c2nonc12	–	–
–	–	–	–	> 100	CC(C)CC(NC(=O)NCCCCCNc1ccc(S(=O)(=O)N(C)C)c2nonc12)C(=O)NO (configuration not stated)	–	–

Further lines, the compound ahead of its results:

Structure (SMILES)	IC50 [2] [µM]	IC50 [3] [µM]	IC50 [4] [µM]	IC50 [5] [µM]	IC50 [6] [µM]	Activity [1] [%]	other results
CN(C)S(=O)(=O)c1ccc(NCCCCCC(=O)NO)c2nonc12	31.2	3.55	> 100	15.2	–	23.3	–
O=C(CCCCCCC(=O)Nc1ccccc1)NO [VORINOSTAT]	–	–	–	–	–	29.58	–
CN(C)S(=O)(=O)c1ccc(NCCCCCCC(=O)NO)c2nonc12	52.6	7.84	> 100	11	–	20.02	Drug uptake [7]: Active; Drug uptake [8]: Not Active; Drug uptake [9]: 62.1%; Drug uptake [10]: Active; Drug uptake [11]: Not Active; Drug uptake [12]: Not Active; Drug uptake [13]: Not Active; Drug uptake [14]: Not Active; Drug uptake [15]: Active
